Laboratory results taken from ChEMBL document CHEMBL6121062, “Discovery, Optimization, and Preclinical Pharmacology of EP652, a METTL3 Inhibitor with Efficacy in Liquid and Solid Tumor Models” (J Med Chem, 2025).

Assays:
METTL3/METTL14 [1] = molecular target: T1, METTL3/METTL14 (Homo sapiens, UniProt Q86U44); test: Inhibition of METTL3/METTL14-mediated m6A mRNA expression in human Calu-6 cells incubated for 24 hrs by LC-MS/MS analysis; assay type: cell-based
METTL3/METTL14 [2] = molecular target: T1, METTL3/METTL14; test: Displacement of [3H]-SAM from METTL3/METTL14 (unknown origin) using 5'biotinylated-UACACUCGAUCUGGACUAAAGGUGCUC-3' RNA as substrate preincubated for 10 mins followed by substrate/[3H]-SAM addition measured after 90 mins by SPA; assay type: protein-complex assay
Cytochrome P450 3A4 = Cytochrome P450 3A4 (Homo sapiens, UniProt P08684); test: Inhibition of CYP3A4 (unknown origin); assay type: ADME
Sequence of Cytochrome P450 3A4 (P08684 whole entry): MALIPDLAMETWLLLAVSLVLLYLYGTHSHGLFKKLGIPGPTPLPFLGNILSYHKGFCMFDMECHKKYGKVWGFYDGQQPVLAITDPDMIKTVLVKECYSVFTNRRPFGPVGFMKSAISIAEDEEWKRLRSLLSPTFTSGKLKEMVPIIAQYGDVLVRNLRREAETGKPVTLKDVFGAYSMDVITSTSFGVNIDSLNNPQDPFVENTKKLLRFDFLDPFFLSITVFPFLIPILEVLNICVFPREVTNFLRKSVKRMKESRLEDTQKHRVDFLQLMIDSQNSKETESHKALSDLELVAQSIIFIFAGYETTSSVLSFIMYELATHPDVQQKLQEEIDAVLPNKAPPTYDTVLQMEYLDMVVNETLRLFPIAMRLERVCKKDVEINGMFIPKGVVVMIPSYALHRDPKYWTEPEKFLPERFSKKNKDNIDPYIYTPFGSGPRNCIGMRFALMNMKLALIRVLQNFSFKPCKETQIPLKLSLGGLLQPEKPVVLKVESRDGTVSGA

[3] = Lipophilicity, logD of compound in 1-octanol/PBS at pH 7.4 incubated for 24 hrs by HPLC analysis; assay type: physicochemical
Kasumi 1 = test: Antiproliferative activity against human Kasumi 1 cells assessed as inhibition of cell viability incubated for 72 hrs by ATPlite assay; assay type: functional, cell-based; settings: Kasumi 1, 72 h
[4] = Half life in rat liver microsomes; assay type: ADME, Microsome
METTL3/METTL14 [5] = molecular target: T1, METTL3/METTL14; test: Inhibition of METTL3/METTL14-mediated m6A mRNA expression in human MV4-11 cells incubated for 24 hrs by LC-MS/MS analysis; assay type: cell-based
METTL3/METTL14 [6] = molecular target: T1, METTL3/METTL14; test: Inhibition of METTL3/METTL14-mediated m6A mRNA expression in human SK-OV-3 cells incubated for 24 hrs by LC-MS/MS analysis; assay type: cell-based
A549 = test: Antiproliferative activity against human A549 cells assessed as inhibition of cell viability incubated for 72 hrs by ATPlite assay; assay type: functional, cell-based; settings: A549, 72 h
[7] = Unbound AUC in mouse at 30 mg/kg, ip; assay type: ADME, organism-based; settings: in vivo
Calu-6 = test: Antiproliferative activity against human Calu-6 cells assessed as inhibition of cell viability incubated for 72 hrs by ATPlite assay; assay type: functional, cell-based; settings: Calu-6, 72 h
METTL3/METTL14 [8] = molecular target: T1, METTL3/METTL14; test: Inhibition of METTL3/METTL14-mediated m6A mRNA expression in human Kasumi 1 cells incubated for 24 hrs by LC-MS/MS analysis; assay type: cell-based
[9] = Unbound AUC in Sprague-Dawley rat at 1 mg/kg/day, iv measured for 24 hrs by LC-MS/MS analysis; assay type: ADME, organism-based; settings: in vivo
NCI-H1650 = test: Growth inhibition of human NCI-H1650 cells spheroid model; assay type: functional, cell-based
MV4-11 = test: Antiproliferative activity against human MV4-11 cells assessed as inhibition of cell viability incubated for 72 hrs by ATPlite assay; assay type: functional, cell-based; settings: MV4-11, 72 h
METTL3/METTL14 [10] = molecular target: T1, METTL3/METTL14; test: Inhibition of METTL3/METTL14-mediated m6A mRNA expression in human FaDu cells incubated for 24 hrs by LC-MS/MS analysis; assay type: cell-based
SK-OV-3 = test: Antiproliferative activity against human SK-OV-3 cells assessed as inhibition of cell viability incubated for 72 hrs by ATPlite assay; assay type: functional, cell-based; settings: SK-OV-3, 72 h
Caov-3 cell line = test: Antiproliferative activity against human Caov-3 cells assessed as inhibition of cell viability incubated for 72 hrs by ATPlite assay; assay type: functional, cell-based; settings: Caov-3, 72 h
METTL3/METTL14 [11] = molecular target: T1, METTL3/METTL14; test: Inhibition of METTL3/METTL14-mediated m6A mRNA expression in human A549 cells incubated for 24 hrs by LC-MS/MS analysis; assay type: cell-based
FaDu = test: Antiproliferative activity against human FaDu cells assessed as inhibition of cell viability incubated for 72 hrs by ATPlite assay; assay type: functional, cell-based
Rattus norvegicus = test: In vivo inhibition of METTL3/METTL14-mediated m6A mRNA expression in PBMC of rat; assay type: functional, organism-based; settings: dose 3-30 mg/kg
[12] = In vivo inhibition of METTL3/METTL14-mediated m6A mRNA expression in PBMC of rat at 3 to 30 mg/kg relative to control; assay type: functional; settings: dose 3-30 mg/kg

T1 sequence (Q86U44 whole entry): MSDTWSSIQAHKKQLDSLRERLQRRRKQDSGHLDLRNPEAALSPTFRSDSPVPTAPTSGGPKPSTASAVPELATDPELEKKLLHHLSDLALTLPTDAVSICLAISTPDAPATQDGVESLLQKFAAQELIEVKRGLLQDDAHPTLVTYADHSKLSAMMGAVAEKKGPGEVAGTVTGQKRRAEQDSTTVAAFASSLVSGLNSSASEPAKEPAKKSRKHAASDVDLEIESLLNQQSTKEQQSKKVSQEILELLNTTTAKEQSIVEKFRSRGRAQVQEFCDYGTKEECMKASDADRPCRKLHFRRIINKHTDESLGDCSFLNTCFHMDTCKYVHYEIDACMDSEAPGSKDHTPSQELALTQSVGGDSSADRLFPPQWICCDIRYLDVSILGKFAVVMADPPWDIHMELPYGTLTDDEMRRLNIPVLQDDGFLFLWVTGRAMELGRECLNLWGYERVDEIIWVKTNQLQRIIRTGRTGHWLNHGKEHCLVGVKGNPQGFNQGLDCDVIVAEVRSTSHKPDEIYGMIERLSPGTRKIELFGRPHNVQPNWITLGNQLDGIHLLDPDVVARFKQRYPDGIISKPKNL
T1 sequence (Q9HCE5 whole entry, further chain): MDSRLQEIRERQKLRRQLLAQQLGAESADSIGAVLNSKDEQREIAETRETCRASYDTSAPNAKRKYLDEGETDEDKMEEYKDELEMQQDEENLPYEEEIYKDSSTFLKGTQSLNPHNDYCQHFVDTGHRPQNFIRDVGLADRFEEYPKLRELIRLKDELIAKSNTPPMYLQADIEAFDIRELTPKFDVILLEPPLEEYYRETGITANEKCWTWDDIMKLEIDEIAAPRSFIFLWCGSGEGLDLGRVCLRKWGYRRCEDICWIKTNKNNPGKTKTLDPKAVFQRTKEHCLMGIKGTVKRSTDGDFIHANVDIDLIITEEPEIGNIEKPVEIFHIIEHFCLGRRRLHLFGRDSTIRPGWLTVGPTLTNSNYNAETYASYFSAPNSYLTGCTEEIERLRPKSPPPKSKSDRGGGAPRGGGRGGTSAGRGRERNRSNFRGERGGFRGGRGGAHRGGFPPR

Compound: COc1cc(-c2cn(Cc3ccc(N4CCC[C@@H](NCC5CCC5)C4)nn3)nn2)c2cn[nH]c2c1
- IC50 (METTL3/METTL14 [1]): 100 nM
- IC50 (METTL3/METTL14 [2]): 2 nM
- IC50 (Cytochrome P450 3A4): ~800 nM
- logD at 24 h [3]: 1.89
- IC50 (Kasumi 1): 629 nM
- half-life [4]: 16 min

Compound: O=C(NCc1ccc2cc(CNCC3CCC3)[nH]c2c1)c1cc(=O)n2ccccc2n1
- IC50 (METTL3/METTL14 [5]): 182 nM
- IC50 (METTL3/METTL14 [6]): 134 nM
- IC50 (A549): > 5000 nM
- IC50 (METTL3/METTL14 [1]): 169 nM
- fAUC [7]: 298.1 µM·min
- IC50 (Calu-6): 1140 nM
- IC50 (METTL3/METTL14 [8]): 138 nM
- fAUC [9]: 4.6 µM·min
- IC50 (NCI-H1650): 2060 nM
- IC50 (METTL3/METTL14 [2]): 4 nM
- IC50 (MV4-11): 7630 nM
- IC50 (METTL3/METTL14 [10]): 331 nM
- IC50 (SK-OV-3): 371 nM
- logD at 24 h [3]: 1.9
- IC50 (Caov-3 cell line): 563 nM
- IC50 (Kasumi 1): 1160 nM
- IC50 (METTL3/METTL14 [11]): 264 nM
- IC50 (FaDu): 2210 nM
- inhibition (Rattus norvegicus): Dose-dependent-effect
- inhibition (INH) [12]: <=61%
